Here are results for 1 substance from patent US20260008817A1, “CYCLIC PEPTIDE OR SALT THEREOF, AND USES THEREOF” (FUJIFILM Corporation, priority 2023, published 2026).

Assay [1] concerns hMSC-Human Mesenchymal Stem Cells. The assay is described as follows: Mesenchymal stem cell (MSC) proliferation-promoting effect. The assay is classed as cell-based. Conditions: 0.001 to 3 nmol/L, compared with bFGF at the same molar ratio; FIG. 3. The protocol: The mesenchymal stem cell (MSC) proliferation-promoting effect of the cyclic peptide complex was evaluated.
The MSC was activated and subcultured according to the recommended protocol of FUJIFILM Irvine Scientific, Inc. using hMSC-Human Mesenchymal Stem Cells (Lonza, PT-2501) and PRIME-XV MSC Expansion XSFM (FUJIFILM Irvine Scientific, Inc., 91149) as a culture medium. MSCs that had been subcultured 1 to 4 times were used for the evaluation.
The evaluation of the proliferation-promoting effect of MSC was performed by the following method. First, a culture medium (hereinafter, referred to as a custom culture medium) in which bFGF was removed from PRIME-XV MSC Expansion XSFM (FUJIFILM Irvine Scientific, Inc., 91149) was prepared. Next, Prime-XV Human Fibronectin (FUJIFILM Irvine Scientific, Inc., 31002) was dissolved in PBS (Fujifilm Wako Pure Chemical Corporation, 164-23551), 2 μg/cm^2 of the solution was added to a 96-well plate used for evaluation, and the 96-well plate was allowed to stand at room temperature for 3 hours to coat the 96-well plate with fibronectin. […] The number of viable cells was calculated from the imaging data and normalized by setting the number of viable cells in the well to which 1 nmol/L bFGF was added to 100, and setting the number of viable cells in the negative control well to 0.

The test system is the same in assay [2]. The assay is described as follows: Effect of maintaining MSC undifferentiated potency (gene expression). In kind it is cell-based. As to conditions: cyclic peptide complex 10 nmol/L, bFGF 1 nmol/L, normalized to 1 nmol/L bFGF = 1, FIG. 4. How it is done:
The effect of maintaining mesenchymal stem cell (MSC) undifferentiated potency of the cyclic peptide complex was evaluated.
MSC was prepared in the same manner as in Example 7.
The evaluation of the effect of maintaining the MSC undifferentiated potency was performed by the following method. First, a culture medium (hereinafter, referred to as a custom culture medium) in which bFGF was removed from PRIME-XV MSC Expansion XSFM (FUJIFILM Irvine Scientific, Inc., 91149) was prepared. Next, Prime-XV Human Fibronectin (FUJIFILM Irvine Scientific, Inc., 31002) was dissolved in PBS (Fujifilm Wako Pure Chemical Corporation, 164-23551), 2 μg/cm^2 of the solution was added to a 12-well plate used for proliferation, and the 12-well plate was allowed to stand at room temperature for 3 hours to coat the 12-well plate with fibronectin. Thereafter, the MSCs subjected to the subculture were peeled using Tryple Express (Thermo, 12604-013), washed once with a custom culture medium, suspended in a custom culture medium in which a cyclic peptide complex or bFGF (R&D Systems, 3718-GMP) was diluted to final concentrations of 10 nmol/L and 1 nmol/L, and seeded on a 12-well plate coated with fibronectin. In this case, conditions in which the cyclic peptide complex and bFGF were not added as a negative control were prepared. After culturing at 37° C. (5% CO2) for 2 nights, the culture medium was replaced by removing the supernatant of the culture medium and adding the same amount of a culture medium prepared to have the same composition as the removed culture medium. After further culturing at 37° C. (5% CO2) for 2 nights, RNA was extracted using an RNeasy Plus Mini Kit (Qiagen, 74136) according to the manufacturer's protocol. […] The expression level of each gene was normalized by setting the expression level of the well to which 1 nmol/L bFGF was added to 1.

Assay [3] concerns Bovine myoblasts. The assay is described as follows: Bovine myoblast proliferation-promoting effect. As to conditions: 0.03 to 10 nmol/L complex versus 30 ng/mL bFGF, 4 days; FIG. 5. The assay is classed as cell-based, Japanese Black cattle. The protocol:
The bovine cells (myoblasts) proliferation-promoting effect of the cyclic peptide complex was evaluated.
Bovine myoblasts were separated from bovine muscle tissue by the following method. First, muscle tissue of Japanese Black cattle was finely chopped in HBSS(−) (phenol red-free) (FUJIFILM Wako Pure Chemical Corporation, 085-09355), and then pronase from Streptomyces griseus (Sigma-Aldrich, 10165921001) was added thereto to a final concentration of 1 mg/mL, and the mixture was allowed to stand at 37° C. for 1 hour. After allowing to stand, HBSS containing 10% FBS was added thereto, and the cells were acquired by centrifugation. The acquired cells were suspended in D-MEM (high glucose) (containing L-glutamine and phenol red) (FUJIFILM Wako Pure Chemical Corporation, 044-29765) containing 10% final concentration of bovine serum and 30 ng/mL bFGF. Suspended cells were cultured in a culture flask coated with an iMatrix-511 solution (FUJIFILM Wako Pure Chemical Corporation, 381-07363) at 0.55 μg/cm^2. […]
The evaluation of the proliferation-promoting effect on bovine myoblasts was performed by the following method. […] The number of viable cells was calculated from the imaging data and normalized by setting the number of viable cells in the well to which 30 ng/mL bFGF was added to 100, and setting the number of viable cells in the negative control well to 0.

Non-standard residues stand in square brackets, D forms with d. No end group written: not given here. hCys = N[C@@H](CCS)C(=O)O; Orn = NCCC[C@H](N)C(=O)O

On to “F-(Orn(acetyl))-VYTFDAHAHSLDAALN-(Hcy)-I (F[Orn]VYTFDAHAHSLDAALN[hCys]IF[Orn]VYTFDAHAHSLDAALN[hCys]I-NH2; thioether (positions not given here); not fully specified (residues 2, 22, bridges); also: dimer of two 20-mers crosslinked via Bis-NHS-PEG13 between side-chain amino groups, C-terminal amide on each monomer) [SEQ ID NO: 346, cyclic peptide complex; C-terminal amidation, amide crosslinking between side chain amino groups of N via Bis-NHS-PEG13]”, for which, in assay [1], the MSC proliferation-promoting effect entry is recorded as “same degree of MSC proliferation-promoting effect as bFGF”. Further, in assay [2], the “expression level of Sox2” value is given as “same degree of a gene expression level as bFGF”. Also, the “proliferation-promoting effect on bovine myoblasts” value in assay [3] is recorded as “comparable to or higher than that of bFGF”.
